This passage reports IC50 results from US10196386B2, “Compounds having muscarinic receptor antagonist and beta2 adrenergic receptor agonist activity” (priority 2016, dated 2019).

One assay has as its target T1, Human β2 adrenoceptor (Homo sapiens, UniProt P07550).
T1 construct: purchased Perkin Elmer
The assay can be described thus: β2 adrenoceptor radioligand binding assay. As for the experimental part:
β2 Adrenoceptor Radioligand Binding Assay
Human β2 adrenoceptor membranes (7.5 ug/well) from Perkin Elmer were incubated with 0.3 nM 125-I Cyanopindolol with or without test compounds, or a saturating concentration of s-propranolol (2 μM) for the determination of non-specific binding. The assay was carried out in 96-well polypropylene plates in a volume of 200 ul. The assay buffer used was 25 mM HEPES, 0.5% BSA (w/v), 1 mM EDTA, 0.02% ascorbic acid (v/v), (pH 7.4). The final assay concentration of DMSO was 0.5% (v/v). The plates were sealed and incubated for 1 h at room temperature on an orbital shaker (slow speed). Membranes were harvested onto 96-well unifilter GF/C filter plates pre-treated with 0.5% polyethyleneimine (v/v), using a filter manifold, washed six times with 200 ul of wash buffer containing 10 mM HEPES and 500 mM NaCl. The plates were dried before addition of 50 μl of microscint-0, sealed then read in a Trilux Microbeta scintillation counter. IC50 values are determined from competition curves using a non-linear curve fitting program. Ki values were calculated from IC50 values by the Cheng and Prusoff equation.

Another assay has as its target T2, Human M3 receptor (Homo sapiens, UniProt P20309).
T2 construct: purchased Perkin Elmer
The assay can be described thus: biochemical. It is filed as binding. The settings on record: read-out: M3 Range.

T2 sequence (P20309 whole entry): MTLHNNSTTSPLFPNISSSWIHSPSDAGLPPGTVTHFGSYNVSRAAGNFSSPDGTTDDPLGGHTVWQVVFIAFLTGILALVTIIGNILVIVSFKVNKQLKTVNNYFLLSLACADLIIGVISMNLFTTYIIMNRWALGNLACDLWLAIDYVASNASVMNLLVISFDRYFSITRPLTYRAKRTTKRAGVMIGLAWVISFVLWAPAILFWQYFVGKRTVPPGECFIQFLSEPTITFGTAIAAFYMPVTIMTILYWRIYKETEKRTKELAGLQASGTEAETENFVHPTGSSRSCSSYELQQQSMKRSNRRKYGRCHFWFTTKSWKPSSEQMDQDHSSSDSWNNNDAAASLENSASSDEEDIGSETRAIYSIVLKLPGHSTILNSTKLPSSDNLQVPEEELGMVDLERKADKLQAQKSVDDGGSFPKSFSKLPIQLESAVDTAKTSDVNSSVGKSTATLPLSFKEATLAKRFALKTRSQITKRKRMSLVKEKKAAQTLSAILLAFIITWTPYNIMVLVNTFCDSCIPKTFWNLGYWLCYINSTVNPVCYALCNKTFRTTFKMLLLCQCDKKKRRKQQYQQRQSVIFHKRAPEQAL
T1 sequence (P07550 whole entry): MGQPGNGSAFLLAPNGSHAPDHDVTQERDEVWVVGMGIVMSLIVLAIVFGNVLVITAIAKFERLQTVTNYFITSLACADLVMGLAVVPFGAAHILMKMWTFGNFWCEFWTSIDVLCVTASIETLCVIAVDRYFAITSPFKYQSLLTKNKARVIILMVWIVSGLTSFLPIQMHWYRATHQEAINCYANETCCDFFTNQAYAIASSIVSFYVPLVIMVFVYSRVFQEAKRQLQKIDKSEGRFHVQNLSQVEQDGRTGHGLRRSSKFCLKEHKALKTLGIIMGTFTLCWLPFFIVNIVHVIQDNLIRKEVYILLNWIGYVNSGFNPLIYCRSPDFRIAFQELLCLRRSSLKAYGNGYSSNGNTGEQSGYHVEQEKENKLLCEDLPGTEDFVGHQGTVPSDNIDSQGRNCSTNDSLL

As to `COc1cc(C(=O)NCc2ccc(-c3cccc([C@](O)(C(=O)OCC4CCN(Cc5ccccc5)CC4)c4ccccc4)c3)s2)cc(F)c1CNC[C@H](O)c1ccc(O)c2[nH]c(=O)ccc12` [Compound 1M, (1-Benzylpiperidin-4-yl)methyl (S)-2-(3-(5-((3-fluoro-4-((((R)-2-hydroxy-2-(8-hydroxy-2-oxo-1,2-dihydroquinolin-5-yl)ethyl)amino)methyl)-5-methoxybenzamido)methyl)thiophen-2-yl)phenyl)-2-hydroxy-2-phenylacetate], the IC50 on Human β2 adrenoceptor and at Human M3 receptor was 0.3 to 3 nM throughout.
Turning to `O=C(NCc1ccc(-c2cccc([C@](O)(C(=O)OCC3CCN(Cc4ccccc4)CC3)c3ccccc3)c2)s1)c1cccc(CNC[C@H](O)c2ccc(O)c3[nH]c(=O)ccc23)c1` [Compound 1N, (1-Benzylpiperidin-4-yl)methyl (S)-2-hydroxy-2-(3-(5-((3-((((R)-2-hydroxy-2-(8-hydroxy-2-oxo-1,2-dihydroquinolin-5-yl)ethyl)amino)methyl)-benzamido)methyl)thiophen-2-yl)phenyl)-2-phenylacetate], the IC50 on Human β2 adrenoceptor and on Human M3 receptor was 0.3 to 3 nM throughout.
Regarding `Cc1cc(C(=O)NCc2ccc(-c3cccc([C@](O)(C(=O)OCC4CCN(Cc5ccccc5)CC4)c4ccccc4)c3)s2)c(F)cc1CNC[C@H](O)c1ccc(O)c2[nH]c(=O)ccc12` [Compound 1O, (1-Benzylpiperidin-4-yl)methyl (S)-2-(3-(5-((2-fluoro-4-((((R)-2-hydroxy-2-(8-hydroxy-2-oxo-1,2-dihydroquinolin-5-yl)ethyl)amino)methyl)-5-methylbenzamido)methyl)thiophen-2-yl)phenyl)-2-hydroxy-2-phenylacetate], the IC50 on Human β2 adrenoceptor was less than 0.3 nM; at Human M3 receptor, more than 3 nM.
The matching figures for `O=C(Cc1ccc(CNC[C@H](O)c2ccc(O)c3[nH]c(=O)ccc23)cc1)NCc1ccc(-c2cccc([C@](O)(C(=O)OCC3CCN(Cc4ccccc4)CC3)c3ccccc3)c2)s1` [Compound 1P, (1-Benzylpiperidin-4-yl)methyl (S)-2-hydroxy-2-(3-(5-((2-(4-((((R)-2-hydroxy-2-(8-hydroxy-2-oxo-1,2-dihydroquinolin-5-yl)ethyl)amino)methyl)-phenyl)acetamido)methyl)thiophen-2-yl)phenyl)-2-phenylacetate]: 0.3 to 3 nM and 0.3 to 3 nM.
`O=C(NCc1ccc(-c2cccc([C@](O)(C(=O)OCC3CCN(Cc4ccccc4)CC3)c3ccccc3)c2)s1)c1ccc(CNC[C@H](O)c2ccc(O)c3[nH]c(=O)ccc23)cn1` [Compound 1Q, (1-Benzylpiperidin-4-yl)methyl (S)-2-hydroxy-2-(3-(5-((5-((((R)-2-hydroxy-2-(8-hydroxy-2-oxo-1,2-dihydroquinolin-5-yl)ethyl)amino)methyl)-picolinamido)methyl)thiophen-2-yl)phenyl)-2-phenylacetate]: the results for the IC50 at Human β2 adrenoceptor and at Human M3 receptor were less than 0.3 nM and 0.3 to 3 nM, respectively.
Take `O=C(NCc1ccc(-c2cccc([C@](O)(C(=O)OCC3CCN(Cc4ccccc4)CC3)c3ccccc3)c2)s1)c1ccc(CNC[C@H](O)c2ccc(O)c3[nH]c(=O)ccc23)c(Cl)c1` [Compound 1R, (1-Benzylpiperidin-4-yl)methyl (S)-2-(3-(5-((3-chloro-4-((((R)-2-hydroxy-2-(8-hydroxy-2-oxo-1,2-dihydroquinolin-5-yl)ethyl)amino)methyl)-benzamido)methyl)thiophen-2-yl)phenyl)-2-hydroxy-2-phenylacetate]: the IC50 on Human β2 adrenoceptor was less than 0.3 nM; on Human M3 receptor, more than 3 nM.
The like results for `Cc1cc(C(=O)NCc2ccc(-c3cccc([C@](O)(C(=O)OCC4CCN(Cc5ccccc5)CC4)c4ccccc4)c3)s2)ccc1CNC[C@H](O)c1ccc(O)c2[nH]c(=O)ccc12` [Compound 1S, (1-Benzylpiperidin-4-yl)methyl (S)-2-hydroxy-2-(3-(5-((4-((((R)-2-hydroxy-2-(8-hydroxy-2-oxo-1,2-dihydroquinolin-5-yl)ethyl)amino)methyl)-3-methylbenzamido)methyl)thiophen-2-yl)phenyl)-2-phenylacetate] were, in that order, less than 0.3 nM and 0.3 to 3 nM.
The like results for `O=C(NCc1ccc(-c2cccc([C@](O)(C(=O)OCC3CCN(Cc4ccccc4)CC3)c3ccccc3)c2)s1)c1ccc(CNC[C@H](O)c2ccc(O)c3[nH]c(=O)ccc23)s1` [Compound 1T, (1-Benzylpiperidin-4-yl)methyl (S)-2-hydroxy-2-(3-(5-((5-((((R)-2-hydroxy-2-(8-hydroxy-2-oxo-1,2-dihydroquinolin-5-yl)ethyl)amino)methyl)thiophene-2-carboxamido)methyl)thiophen-2-yl)phenyl)-2-phenylacetate] were, in that order, 0.3 to 3 nM and 0.3 to 3 nM.
On to `O=C(NCc1ccc(-c2cccc([C@](O)(C(=O)OCC3CCN(Cc4ccccc4)CC3)c3ccccc3)c2)s1)c1cc(F)c(CNC[C@H](O)c2ccc(O)c3[nH]c(=O)ccc23)cc1F` [Compound 1U, (1-Benzylpiperidin-4-yl)methyl (S)-2-(3-(5-((2,5-difluoro-4-((((R)-2-hydroxy-2-(8-hydroxy-2-oxo-1,2-dihydroquinolin-5-yl)ethyl)amino)methyl)-benzamido)methyl)thiophen-2-yl)phenyl)-2-hydroxy-2-phenylacetate], for which the IC50 on Human β2 adrenoceptor was less than 0.3 nM; on Human M3 receptor, 0.3 to 3 nM.
The like results for `O=C(NCc1ccc(-c2cccc([C@](O)(C(=O)OCC3CCN(Cc4ccccc4)CC3)c3ccccc3)c2)s1)c1ccc(CNC[C@H](O)c2ccc(O)c3[nH]c(=O)ccc23)c(F)c1F` [Compound 1V, (1-Benzylpiperidin-4-yl)methyl (S)-2-(3-(5-((2,3-difluoro-4-((((R)-2-hydroxy-2-(8-hydroxy-2-oxo-1,2-dihydroquinolin-5-yl)ethyl)amino)methyl)-benzamido)methyl)thiophen-2-yl)phenyl)-2-hydroxy-2-phenylacetate] were, in that order, less than 0.3 nM and 0.3 to 3 nM.
In the case of `O=C(NCc1ccc(-c2cccc([C@](O)(C(=O)OCC3CCN(Cc4ccccc4)CC3)c3ccccc3)c2)s1)c1c(F)cc(CNC[C@H](O)c2ccc(O)c3[nH]c(=O)ccc23)cc1Cl` [Compound 1W, (1-Benzylpiperidin-4-yl)methyl (S)-2-(3-(5-((2-chloro-6-fluoro-4-((((R)-2-hydroxy-2-(8-hydroxy-2-oxo-1,2-dihydroquinolin-5-yl)ethyl)amino)methyl)-benzamido)methyl)thiophen-2-yl)phenyl)-2-hydroxy-2-phenylacetate], the IC50 is less than 0.3 nM on Human β2 adrenoceptor and 0.3 to 3 nM on Human M3 receptor.
With `COc1cc(CNC[C@H](O)c2ccc(O)c3[nH]c(=O)ccc23)cc(F)c1C(=O)NCc1ccc(-c2cccc([C@](O)(C(=O)OCC3CCN(Cc4ccccc4)CC3)c3ccccc3)c2)s1` [Compound 1X, (1-Benzylpiperidin-4-yl)methyl (S)-2-(3-(5-((2-fluoro-4-((((R)-2-hydroxy-2-(8-hydroxy-2-oxo-1,2-dihydroquinolin-5-yl)ethyl)amino)methyl)-6-methoxybenzamido)methyl)thiophen-2-yl)phenyl)-2-hydroxy-2-phenylacetate], the values for the IC50 on Human β2 adrenoceptor and at Human M3 receptor were less than 0.3 nM and 0.3 to 3 nM, respectively.
The like results for `COc1ccc(CN2CCC(COC(=O)[C@](O)(c3ccccc3)c3cccc(-c4ccc(CNC(=O)c5ccc(CNC[C@H](O)c6ccc(O)c7[nH]c(=O)ccc67)cc5)s4)c3)CC2)cc1` [Compound 2A, (1-(4-Methoxybenzyl)piperidin-4-yl)methyl (S)-2-hydroxy-2-(3-(5-((4-((((R)-2-hydroxy-2-(8-hydroxy-2-oxo-1,2-dihydroquinolin-5-yl)ethyl)amino)-methyl)benzamido)methyl)thiophen-2-yl)phenyl)-2-phenylacetate] were, in that order, less than 0.3 nM and 0.3 to 3 nM.
The like results for `CN1CCC(COC(=O)[C@](O)(c2ccccc2)c2cccc(-c3ccc(CNC(=O)c4ccc(CNC[C@H](O)c5ccc(O)c6[nH]c(=O)ccc56)cc4)s3)c2)CC1` [Compound 2B, (1-Methylpiperidin-4-yl)methyl (S)-2-hydroxy-2-(3-(5-((4-((((R)-2-hydroxy-2-(8-hydroxy-2-oxo-1,2-dihydroquinolin-5-yl)ethyl)amino)methyl)-benzamido)methyl)thiophen-2-yl)phenyl)-2-phenylacetate] were, in that order, less than 0.3 nM and 0.3 to 3 nM.
The matching figures for `O=C(NCc1ccc(-c2cccc([C@](O)(C(=O)OC[C@@H]3[C@H]4CN(Cc5ccccc5)C[C@@H]34)c3ccccc3)c2)s1)c1ccc(CNC[C@H](O)c2ccc(O)c3[nH]c(=O)ccc23)cc1` [Compound 2D, ((1R,5S,6r)-3-Benzyl-3-azabicyclo[3.1.0]hexan-6-yl)methyl (S)-2-hydroxy-2-(3-(5-((4-((((R)-2-hydroxy-2-(8-hydroxy-2-oxo-1,2-dihydroquinolin-5-yl)ethyl)amino)methyl)benzamido)methyl)thiophen-2-yl)phenyl)-2-phenylacetate]: 0.3 to 3 nM and 0.3 to 3 nM.
As for `COc1cccc(CN2CCC(COC(=O)[C@](O)(c3ccccc3)c3cccc(-c4ccc(CNC(=O)c5ccc(CNC[C@H](O)c6ccc(O)c7[nH]c(=O)ccc67)cc5)s4)c3)CC2)c1` [Compound 2E, (1-(3-Methoxybenzyl)piperidin-4-yl)methyl (S)-2-hydroxy-2-(3-(5-((4-((((R)-2-hydroxy-2-(8-hydroxy-2-oxo-1,2-dihydroquinolin-5-yl)ethyl)amino)-methyl)benzamido)methyl)thiophen-2-yl)phenyl)-2-phenylacetate], the IC50 at Human β2 adrenoceptor is 0.3 to 3 nM; on Human M3 receptor it was more than 3 nM.
